These results are taken from patent publication US5508304A, “Glucagon antagonists and methods relating thereto” (ZymoGenetics, Inc., priority 1994, dated 1996).

For data set [1], the target named is T1, glucagon receptor (Rattus norvegicus, UniProt P30082).
T1 construct: Liver plasma membranes for use in adenylate cyclase assays were prepared; from tissue; host or cells: rat liver plasma membranes
The data set can be described thus: Adenylate cyclase assay: glucagon-stimulated cAMP production in liver plasma membranes (Amersham Scintillation Proximity Assay kit). As to conditions: for cAMP response to glucagon, serial dilutions of test substance: fixed 5 nM glucagon stock, 5 μl per well; for inhibition of cAMP activity with increasing concentration of test substance (FIG. 7): fixed concentration of glucagon. The format is biochemical. The protocol:
Liver plasma membranes for use in adenylate cyclase assays were prepared essentially as described by Neville et al. (Biochim. Biophys. Acta 154:540-552, 1968) as modified by Pohl (Methods in Receptor Research, Blecher (ed.), New York, pp. 160-164, 1976). Twenty rats were euthanized by decapitation, and the livers were removed and cooled to 4° C. After cooling, the livers were maintained at 4° C. during the membrane preparation. The approximate volume of the livers was determined. Three volumes of medium (1 mM NaHCO3, 0.5 mM CaCl2) were added to the livers, and the liver tissue was roughly minced with scissors. The minced tissue was divided into two parts, and each part was homogenized for thirty seconds in a Waring-type blender at full speed. After homogenization, the homogenates were each transferred to a sieve with a 1.5 mm pore size, and the homogenates were strained through the sieve. The straining procedure was repeated for each homogenate through a finer screen. The strained homogenates were combined, and medium was added to a final volume of one liter. The homogenate was further homogenized with a Dounce homogenizer using eight vigorous strokes of the loose pestle. The homogenates were filtered through four layers of cheesecloth. The strained homogenates were centrifuged at approximately 150×g in a swinging bucket rotor for 20 minutes at 4° C. The supernalant was discarded, and the precipitate was resuspended in 500 ml of medium and homogenized in a Dounce homogenizer with three strokes of the loose pestle. The centrifugation was repeated, and the resulting precipitate was resuspended in 250 ml of medium. The homogenate was centrifuged as described, and the precipitate was suspended in 50 to 100 ml of medium. The suspension was homogenized in a Dounce homogenizer with three strokes of the loose pestle. Sucrose from a 69% sucrose solution was added to the suspension to a final sucrose concentration of 44.0±0.1%. The solution was centrifuged in an ultracentrifuge at approximately 100,000×g for 150 minutes. The membranes were removed from the top of the tube with a spoon. The membranes were stored at -80° C.
Adenylate cyclase assays were carried out in the presence and absence of […] diluted in DMSO. Glucagon (Mallinkrodt Inc. St. Louis, Mo.) was dissolved in 10% acetic acid and lyophilized in 25-μg portions. The lyophilized glucagon was dissolved in 100 μl of 0.05M HCl and left for three minutes, after which the glucagon was serially diluted in buffer (2.5% human serum albumin (Grade 5, Sigma Chemical Co., St. Louis, Mo.) in 0.1M HEPES, 0.15M NaCl, pH 7.4) to final concentrations of between 0 and 100 nM. Aliquots of the membrane preparations were thawed and diluted with water to a protein concentration of approximately 3-5 mg/ml.
For each 96-well assay plate, triplicate samples were assayed in the presence and absence of 20 μM skyrin. […] Five microliters of 20 μM skyrin in DMSO or 5 μl of DMSO alone was added to each well. Fifty microliters of incubation mixture (0.1% human serum albumin (Grade 5, Sigma), 15 mM MgCl2, 1 mM ATP, 0.9 mM IBMX (3-isobutyl-1-methylxanthine, Sigma), 15 mM creatine phosphate, and 5 mg/ml creatine phosphokinase in 50 mM Tris-HCl (pH 7.4) was then added to each well. […]
The cAMP produced in each reaction was determined by assaying 10 μl of each sample using an Amersham Scintillation Proximity Assay kit (Amersham, Arlington Heights, Ill.). […]
In general terms: cAMP levels reflect the balance of adenylyl cyclase and phosphodiesterase activity.

Data set [2] concerns GTPγS-stimulated cAMP production. Description: Adenylate cyclase assay with GTPγS, receptor-independent stimulation of cAMP production. The format is biochemical, rat. The procedure:
(§1) Liver plasma membranes for use in adenylate cyclase assays were prepared essentially as described by Neville et al. (Biochim. Biophys. Acta 154:540-552, 1968) as modified by Pohl (Methods in Receptor Research, Blecher (ed.), New York, pp. 160-164, 1976). Twenty rats were euthanized by decapitation, and the livers were removed and cooled to 4° C. After cooling, the livers were maintained at 4° C. during the membrane preparation. The approximate volume of the livers was determined. Three volumes of medium (1 mM NaHCO3, 0.5 mM CaCl2) were added to the livers, and the liver tissue was roughly minced with scissors. The minced tissue was divided into two parts, and each part was homogenized for thirty seconds in a Waring-type blender at full speed. After homogenization, the homogenates were each transferred to a sieve with a 1.5 mm pore size, and the homogenates were strained through the sieve. […]
(§2) The cAMP produced in each reaction was determined by assaying 10 μl of each sample using an Amersham Scintillation Proximity Assay kit (Amersham, Arlington Heights, Ill.).
(§3) The specificity of the skyrin antagonist activity was assessed by replacing the serial dilutions of glucagon with serial dilutions of vasoactive intestinal peptide (VIP; Sigma Chemical Co., St. Louis, Mo.), calcitonin gene-related peptide (CGRP), forskolin (Calbiochem, San Diego, Calif.) and GTP-γS. […]

For data set [3], the target named is T2, CGRP-stimulated non-glucagon G protein-coupled receptors in liver membranes (Rattus norvegicus, UniProt Q63118).
T2 construct: Liver plasma membranes for use in adenylate cyclase assays were prepared; from tissue; host or cells: rat liver plasma membranes
Description: Adenylate cyclase assay with CGRP in place of glucagon. The format is biochemical. Particulars: serial dilutions of CGRP, with and without skyrin; FIG. 5. The procedure: as §1, §2, §3

Data set [4] concerns the target T3, VIP-stimulated non-glucagon G protein-coupled receptors in liver membranes (Rattus norvegicus, UniProt P30083).
T3 construct: Liver plasma membranes for use in adenylate cyclase assays were prepared; from tissue; host or cells: rat liver plasma membranes
T3 sequence (P30083 31-459): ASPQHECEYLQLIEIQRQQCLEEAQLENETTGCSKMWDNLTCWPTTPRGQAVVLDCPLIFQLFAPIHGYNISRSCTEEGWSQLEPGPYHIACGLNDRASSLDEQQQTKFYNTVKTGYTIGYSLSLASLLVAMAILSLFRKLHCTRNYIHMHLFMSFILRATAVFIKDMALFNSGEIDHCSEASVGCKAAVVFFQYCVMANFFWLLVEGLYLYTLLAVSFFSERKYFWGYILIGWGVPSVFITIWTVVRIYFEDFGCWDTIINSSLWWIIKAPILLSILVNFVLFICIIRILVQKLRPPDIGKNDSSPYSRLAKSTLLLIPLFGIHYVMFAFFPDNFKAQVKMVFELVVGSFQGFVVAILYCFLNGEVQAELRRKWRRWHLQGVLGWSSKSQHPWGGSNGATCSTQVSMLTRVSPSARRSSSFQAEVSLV
The data set can be described thus: Adenylate cyclase assay with VIP in place of glucagon. The format is biochemical. As to conditions: serial dilutions of VIP, with and without skyrin; FIG. 4. The procedure:
as §1, §2, §3

For data set [5], the system named is rat leukemia cell mitochondria. As to conditions: cited from earlier work.
The conditions of data set [6]: Stark et al. 1978; cited from earlier work.
Data set [7] concerns forskolin-stimulated cAMP production. The data set can be described thus: Adenylate cyclase assay with forskolin, receptor-independent stimulation of cAMP production. Type of data set: biochemical, rat. Particulars: presence and absence of 0.02 mM skyrin. The protocol:
as §1, §2, §3

The test system of data set [8] is rat liver mitochondria. Particulars: cited from earlier work.
Data set [9] deals with rice dwarf virus-RNA transcriptase. As to conditions: Yangai et al. 1976; cited from earlier work.
In data set [10] the target is T4, glucagon binding to rat liver membranes (Rattus norvegicus, UniProt P30082).
T4 construct: 0.2 mg of rat liver membranes in 20 μl in water; from tissue; host or cells: rat liver membranes
Description: 125I-glucagon binding to rat liver membranes. Particulars: 20 μl of 56 μM skyrin vs DMSO; 30 min at 30° C.; FIG. 8. The protocol:
Glucagon binding to rat liver membranes in the presence and absence of skyrin was determined in this experiment. Reactions tubes were prepared, each of which contained 20 μl of serially diluted unlabeled glucagon from 10^-5 M to 10^-10 M, 100 μl of 2× binding buffer (100 mM HEPES, pH 7.6), 200 mM NaCl, 2 mM EDTA, 2.0% bovine serum albumin (BSA), 1.0 mg/ml of bacitracin (Sigma Chem. Co.), approximately 0.1 nmoles of ^125 I-glucagon (Amersham) in 10 mM acetic acid/0.5% BSA with a specific activity of 2000 Ci/mmole, 20 μl of 56 μM skyrin (dissolved and diluted in DMSO) or DMSO, and water to achieve a final volume of 180 μl. The reaction was initiated by the addition of 0.2 mg of rat liver membranes in 20 μl in water. The reactions were incubated for 30 minutes at 30° C. After incubation the tubes were centrifuged at high speed in a microfuge for 10 minutes at 4° C. The supernatants were discarded, and the radioactivity in the pellets was quantitated with a gamma-counter (the level of radioactivity in a sample indicated the total binding of glucagon to the rat liver membranes). […] Based on this experiment, it is believed that the glucagon antagonists of this invention, including skyrin and skyrin analogs, function as glucagon antagonists by interrupting postglucagon binding events.

T1 sequence (P30082 27-485): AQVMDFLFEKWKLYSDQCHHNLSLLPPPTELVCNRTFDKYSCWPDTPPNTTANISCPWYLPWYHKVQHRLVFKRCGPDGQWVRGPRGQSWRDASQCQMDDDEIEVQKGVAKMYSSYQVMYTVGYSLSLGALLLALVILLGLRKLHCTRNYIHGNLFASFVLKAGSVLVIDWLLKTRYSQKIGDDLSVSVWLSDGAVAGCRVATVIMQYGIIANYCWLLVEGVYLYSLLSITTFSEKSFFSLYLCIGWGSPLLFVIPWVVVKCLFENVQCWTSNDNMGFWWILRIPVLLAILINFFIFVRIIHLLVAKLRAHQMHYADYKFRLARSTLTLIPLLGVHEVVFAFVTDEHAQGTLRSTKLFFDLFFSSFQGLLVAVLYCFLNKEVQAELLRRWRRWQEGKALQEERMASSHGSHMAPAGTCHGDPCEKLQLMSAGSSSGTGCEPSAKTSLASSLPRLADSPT
T2 sequence (Q63118 24-464): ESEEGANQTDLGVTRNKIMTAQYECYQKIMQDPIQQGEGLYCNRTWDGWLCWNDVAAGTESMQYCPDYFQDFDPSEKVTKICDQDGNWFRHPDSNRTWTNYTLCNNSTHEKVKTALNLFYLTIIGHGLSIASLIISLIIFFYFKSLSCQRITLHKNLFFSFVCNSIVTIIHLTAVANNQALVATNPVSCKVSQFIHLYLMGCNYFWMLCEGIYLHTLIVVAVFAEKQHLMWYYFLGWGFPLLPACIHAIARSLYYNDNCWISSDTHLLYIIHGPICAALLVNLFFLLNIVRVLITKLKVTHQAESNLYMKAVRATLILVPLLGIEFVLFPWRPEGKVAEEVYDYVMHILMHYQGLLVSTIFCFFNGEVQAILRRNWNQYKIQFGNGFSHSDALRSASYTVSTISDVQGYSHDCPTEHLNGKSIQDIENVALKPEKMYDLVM
T2 sequence (Q9JJ74 27-148 partner): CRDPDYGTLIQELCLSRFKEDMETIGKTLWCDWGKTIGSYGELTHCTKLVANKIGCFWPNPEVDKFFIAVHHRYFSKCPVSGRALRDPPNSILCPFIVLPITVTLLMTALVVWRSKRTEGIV
T4 sequence (P30082 27-485): as the sequence (P30082 27-485) above

Consider `Cc1cc(O)c2c(c1)C(=O)c1c(c(O)cc(O)c1-c1c(O)cc(O)c3c1C(=O)c1cc(CO)cc(O)c1C3=O)C2=O` [oxyskyrine], for which, in data set [1], the “cAMP response to glucagon, serial dilutions of test substance” value is “inhibited cAMP response to glucagon” and the “inhibition of cAMP activity with increasing concentration of test substance (FIG. 7)” value was “increase in inhibition of cAMP activity”.
Take `Cc1cc(O)c2c(c1)C(=O)c1c(c(O)cc(O)c1-c1c(O)cc(O)c3c1C(=O)c1cc(C)cc(O)c1C3=O)C2=O` [skyrin]: the “cAMP levels produced by GTPγS” value in [2] (presence and absence of 0.02 mM skyrin) is “unaffected”. Moreover, the “GTPγS-stimulated cAMP levels (FIG. 6)” value in data set [2] (presence of 0.2 mM skyrin as printed) is given as “uneffected”. The “cAMP response to glucagon” value in data set [1] (20 μM skyrin in DMSO vs DMSO alone, glucagon 0-100 nM, FIG. 3) is listed as “inhibited the cAMP response to glucagon”. In data set [1], the “cAMP response to glucagon, serial dilutions of test substance” value is “inhibited cAMP response to glucagon” and the “inhibition of cAMP activity with increasing concentration of test substance (FIG. 7)” value is “increase in inhibition of cAMP activity”. In addition, the “stimulation of cAMP production by CGRP” value in data set [3] is listed as “did not affect the stimulation”. For the same compound, the “stimulation of cAMP production by VIP” value in [4] is given as “did not affect the stimulation”. The “uncoupling of oxidative phosphorylation” value in data set [5] is recorded as “uncouple oxidative phosphorylation”. Moreover, the mutagenicity entry in [6] was “non-mutagenic”. Moreover, the “cAMP levels produced by forskolin” value in data set [7] is recorded as “unaffected”. Besides, the “uncoupling of oxidative phosphorylation” value in data set [8] is listed as “uncouple oxidative phosphorylation”. For the same compound, the “inhibition of rice dwarf virus-RNA transcriptase” value in [9] was “selectively inhibit”. The “binding of glucagon to rat liver membrane” value in data set [10] is listed as “increased binding of glucagon”.
